Measurements taken from patent US20140116434A1, “Dry Powder Inhaler Compositions” (GLAXO GROUP LIMITED, priority 2011, published 2014).

Key:
[1] = assay type: in vivo, animal and human
asthmatic patients = assay: clinical pharmacology studies of the compound of formula (II) in asthmatic patients; assay type: in vivo, human; details: all doses tested
Text: The compound of formula (II) as the α-phenylcinnamate salt and the triphenylacetate salt has been studied in a number of clinical pharmacology studies, including single- and repeat-dose studies. In addition, these studies have evaluated the compound of formula (II) formulated with lactose and either cellobiose octaacetate or magnesium stearate.

[2] = test system: subjects with persistent uncontrolled asthma; assay: 8 week randomised, double-blind, placebo-controlled study in persistent uncontrolled asthma; assay type: in vivo, human
Method: In one such study, the safety and efficacy of four doses of 6α,9α-difluoro-17α-[(2-furanylcarbonyl)oxy]-11β-hydroxy-16α-methyl-3-oxo-androsta-1,4-diene-17β-carbothioic acid S-fluoromethyl ester (fluticasone furoate) in subjects with persistent uncontrolled asthma were evaluated. In this study, which was a randomised, double-blind, placebo-controlled, parallel group study, 598 patients received one of six treatments: fluticasone furoate (25, 50, 100 or 200 mcg) once daily, fluticasone propionate 100 mcg twice daily or placebo for 8 weeks. The primary endpoint was change from baseline in trough (pre-dose) forced expiratory volume in 1 second (FEV1) at Week 8. […] This study supports the use of fluticasone furoate (100 or 200 mcg once-daily) for the treatment of persistant uncontrolled asthma.

pre-clinical models = assay: duration of action in vivo, administered directly to the lungs in pre-clinical models; set-up: species or system animals
[3] = test system: healthy Japanese volunteers; assay: single inhaled dose four-way crossover study, monotherapies and combination; assay type: in vivo, human; details: single inhaled doses, 500 mcg and/or 50 mcg
Text: A combination of 4-[hydroxy(diphenyl)methyl]-1-{2-[(phenylmethyl)oxy]ethyl}-1-azoniabicyclo[2.2.2]octane bromide and the compound of formula (II) as the triphenylacetate salt has been administered to sixteen healthy Japanese volunteers, aged 20 to 65, as part of a clinical trial to assess the safety, tolerability, pharmacokinetics and pharmacodynamics of single inhaled doses of 4-[hydroxy(diphenyl)methyl]-1-{2-[(phenylmethyl)oxy]ethyl}-1-azoniabicyclo[2.2.2]octane bromide and the compound of formula (II) triphenylacetate as monotherapies and in combination. […]
This clinical study in healthy Japanese volunteers, evaluated the effect of 4-[hydroxy(diphenyl)methyl]-1-{2-[(phenylmethyl)oxy]ethyl}-1-azoniabicyclo[2.2.2]octane bromide (500 mcg dose) and the compound of formula (II) triphenylacetate (50 mcg dose) administered as single inhaled doses and concurrently (4-[hydroxy(diphenyl)methyl]-1-{2-[(phenylmethyl)oxy]ethyl}-1-azoniabicyclo[2.2.2]octane bromide (500 mcg dose) and the compound of formula (II) triphenylacetate (50 mcg dose)) on lung function parameters. […] In this study FEV1 values were recorded. […]

muscarinic receptor = muscarinic receptor antagonism, studies in animal models and in humans
human M3 receptor = human M3 receptor (Homo sapiens, UniProt P20309); assay: reversibility at the human M3 receptor in vitro; assay type: binding
Sequence of human M3 receptor (P20309 whole entry): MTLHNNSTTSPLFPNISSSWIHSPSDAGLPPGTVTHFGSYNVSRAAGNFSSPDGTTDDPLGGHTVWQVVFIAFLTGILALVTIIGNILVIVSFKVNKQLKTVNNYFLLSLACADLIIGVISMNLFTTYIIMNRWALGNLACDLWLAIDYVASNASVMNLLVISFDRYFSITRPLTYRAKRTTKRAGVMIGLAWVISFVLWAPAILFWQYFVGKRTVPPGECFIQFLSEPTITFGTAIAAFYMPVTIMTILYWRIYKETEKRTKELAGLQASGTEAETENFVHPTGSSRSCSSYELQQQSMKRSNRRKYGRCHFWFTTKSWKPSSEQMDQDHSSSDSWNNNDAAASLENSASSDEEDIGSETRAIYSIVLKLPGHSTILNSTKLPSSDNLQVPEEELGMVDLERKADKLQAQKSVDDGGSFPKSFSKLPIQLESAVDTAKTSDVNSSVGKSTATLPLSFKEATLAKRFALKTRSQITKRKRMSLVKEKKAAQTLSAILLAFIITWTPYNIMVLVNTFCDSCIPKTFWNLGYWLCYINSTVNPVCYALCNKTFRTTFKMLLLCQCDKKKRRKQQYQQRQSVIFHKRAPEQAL

[4] = test system: healthy volunteers and COPD patients; assay: clinical pharmacology studies, single inhaled doses, plethysmography (sGaw, Raw) and spirometry (FEV1); assay type: in vivo, human
Method: Several clinical pharmacology studies have been conducted using 4-[hydroxy(diphenyl)methyl]-1-{2-[(phenylmethyl)oxy]ethyl}-1-azoniabicyclo[2.2.2]octane bromide in both healthy volunteers and COPD patients to investigate the safety, tolerability, pharmacokinetics and pharmacodynamics of this compound. The bronchodilatory effects and duration of action of single inhaled doses of this compound as measured by plethysmography (sGaw, Raw) and spirometry (FEV1) were assessed in some of the above noted studies.

subjects with COPD [5] = assay: 14-day once-daily study in subjects with COPD; assay type: in vivo, human; details: 14-day treatment period
Text: In addition, this study confirmed that 4-[hydroxy(diphenyl)methyl]-1-{2-[(phenylmethyl)oxy]ethyl}-1-azoniabicyclo[2.2.2]octane bromide has a once-daily profile.

subjects with COPD [6] = assay: 28 day once-daily dry powder inhaler study in subjects with COPD; assay type: in vivo, human; details: 125, 250 and 500 mcg once-daily, 28 day period
Text: A further study evaluated the efficacy and safety of three doses (125 mcg, 250 mcg and 500 mcg) of 4-[hydroxy(diphenyl)methyl]-1-{2-[(phenylmethyl)oxy]ethyl}-1-azoniabicyclo[2.2.2]octane bromide administered once-daily via a dry powder inhaler over a 28 day period in subjects with COPD.

OCc1cc([C@@H](O)CNCCCCCCOCCOCc2c(Cl)cccc2Cl)ccc1O [compound of formula (II), 4-{(1R)-2-[(6-{2-[(2,6-dichlorobenzyl)oxy]ethoxy}hexyl)amino]-1-hydroxyethyl}-2-(hydroxymethyl)phenol]
bronchodilation ([1]; animal and human studies): sustained bronchodilation over a 24 hour period
safety profile ([1]; in vivo): favourable safety profile
trough (24-hour) FEV1 compared to placebo (asthmatic patients): statistically and clinically significant improvement

C[C@@H]1C[C@H]2[C@@H]3C[C@H](F)C4=CC(=O)C=C[C@]4(C)[C@@]3(F)[C@@H](O)C[C@]2(C)[C@@]1(OC(=O)c1ccco1)C(=O)SCF [fluticasone furoate, 6α,9α-difluoro-17α-[(2-furanylcarbonyl)oxy]-11β-hydroxy-16α-methyl-3-oxo-androsta-1,4-diene-17β-carbothioic acid S-fluoromethyl ester]
change from baseline in trough FEV1 relative to placebo ([2]; 50-200 mcg once daily, Week 8, p<0.05): significantly greater increases
increase in trough FEV1 from baseline relative to placebo ([2]; 100 mcg and 200 mcg once daily, Week 8): > 200 mL

OC(c1ccccc1)(c1ccccc1)C12CC[N+](CCOCc3ccccc3)(CC1)CC2.[Br-] [4-[hydroxy(diphenyl)methyl]-1-{2-[(phenylmethyl)oxy]ethyl}-1-azoniabicyclo[2.2.2]octane bromide]
duration of action in vivo (pre-clinical models): long duration of action
tolerability ([3]; dry powder inhalers): well tolerated
FEV1 values compared with placebo [3]: higher
muscarinic receptor antagonist profile (muscarinic receptor): long acting high-affinity pan-active muscarinic receptor antagonist
reversibility at the human M3 receptor (human M3 receptor): slow reversibility
bronchodilatory effects (sGaw, Raw, FEV1) [4]: clinically relevant bronchodilation
duration of action [4]: 24 h
pulmonary function compared to placebo (subjects with COPD [5]; 62.5, 125, 250, 500 and 1000 mcg once-daily): statistically significant improvements
trough FEV1 compared with open label tiotropium active control (18 mcg once-daily) (subjects with COPD [5]; all once-daily doses): numerically greater improvement
bronchodilation (subjects with COPD [6]): significant bronchodilation over twenty four hours
safety (subjects with COPD [6]): safe
